Results reported in patent US6878738B1, “Anti-inflammatory oxo derivatives and hydroxy derivatives of pyrrolizines, and their pharmaceutical use” (Merckle GmbH, priority 1999, dated 2005).
Read-outs that look alike come from different tables or passages of the source.

Legend:
5-lipoxygenase = molecular target: T1, 5-lipoxygenase (Homo sapiens, UniProt P09917); assay: Inhibition of 5-lipoxygenase: LTB4 formation in human granulocytes stimulated with calcium ionophore A 23187, ELISA; type: cell-based; conditions: read-out: IC50 5-LO
T1 construct: Human granulocytes are used as a source of 5-lipoxygenase; endogenous in cells; host or cells: human granulocytes isolated from heparinised blood
T1 sequence (P09917 1-674): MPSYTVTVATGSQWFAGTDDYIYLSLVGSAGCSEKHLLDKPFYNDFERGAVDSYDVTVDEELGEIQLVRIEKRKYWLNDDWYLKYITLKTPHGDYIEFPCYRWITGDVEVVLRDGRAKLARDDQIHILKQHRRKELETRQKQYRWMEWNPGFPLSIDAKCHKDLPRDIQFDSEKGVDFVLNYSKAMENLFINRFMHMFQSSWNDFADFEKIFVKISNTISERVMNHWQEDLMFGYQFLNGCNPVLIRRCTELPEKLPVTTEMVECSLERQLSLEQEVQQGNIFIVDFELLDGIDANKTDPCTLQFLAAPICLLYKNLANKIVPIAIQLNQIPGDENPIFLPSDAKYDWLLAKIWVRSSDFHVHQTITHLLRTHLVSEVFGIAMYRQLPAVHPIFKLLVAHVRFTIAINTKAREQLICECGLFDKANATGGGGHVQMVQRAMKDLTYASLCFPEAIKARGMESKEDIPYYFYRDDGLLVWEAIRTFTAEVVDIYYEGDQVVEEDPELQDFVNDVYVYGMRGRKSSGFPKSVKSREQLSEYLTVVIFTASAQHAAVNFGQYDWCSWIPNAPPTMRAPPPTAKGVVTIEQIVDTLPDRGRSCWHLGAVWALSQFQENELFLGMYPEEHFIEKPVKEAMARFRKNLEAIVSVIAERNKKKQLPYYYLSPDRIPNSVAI
Method: Test System for Determination of the Inhibition of 5-Lipoxygenase
Human granulocytes are used as a source of 5-lipoxygenase. By means of stimulation with calcium ionophore A 23187, LTB4 (leukotriene B4) is formed from endogenous arachidonic acid. The granulocytes are isolated and the enzyme reaction is carried out according to known processes (see Arch. Pharm. Med. Chem. 330, 307-312 (1997)).
The blood, protected from clotting with heparin, is centrifuged over a discontinuous Percoll® gradient and the granulocyte layer is removed by pipette. After lysis of the erythrocytes, the granulocytes are washed a number of times and then adjusted to a specific cell count. The enzyme reaction is then started in the presence or absence of the test substance after addition of Ca^2+ using calcium ionophore […]. The synthesis of the leukotrienes is stopped after 1.5 minutes. The samples are centrifuged off and the supernatant is diluted. LTB4 is determined quantitatively by means of ELISA.

[1] = Determination of the partition coefficient n-octanol/water (OECD Guideline No. 117); type: physicochemical
Method: Determination of the Partition Coefficient
The partition coefficient P of the compounds was determined in the system n-octanol/water according to the OECD Guidline for Testing Chemicals, No. 117.

Cyclooxygenase-1 = molecular target: T2, Cyclooxygenase-1 (Homo sapiens, UniProt P23219); assay: Inhibition of cyclooxygenase-1: prostaglandin E2 formed from human platelets after calcium ionophore, ELISA; type: cell-based; conditions: PGE2, read-out: IC50 COX-1
T2 construct: endogenous in cells; host or cells: human platelets isolated over a Percoll gradient
Method: Test System for Determination of the Inhibition of Cyclooxygenase-1
In this test system, the amount of prostaglandin E2 formed from human platelets after addition of calcium ionophore is determined by means of ELISA. In this process, the platelets are obtained after centrifugation over a discontinuous Percoll® gradient. The enzyme reaction and the determination of the metabolites formed is carried out in principle as in the determination of 5-lipoxygenase inhibition. Differences exist with respect to the incubation time. Furthermore, the addition of a thromboxane synthase inhibitor is necessary (see Arch. Pharm. Med. Chem. 330, 307-312 (1997)).

[2] = molecular target: T3, COX2 (from sheep placenta) (Ovis aries, UniProt P79208); assay: Inhibition of cyclooxygenase-2: COX2 stimulated with arachidonic acid, PGE2 by ELISA; type: biochemical; conditions: arachidonic acid 5 μM, read-out: IC50 COX-2
T3 construct: COX2 (from sheep placenta) is preincubated with test substance at 4° C. for 10 min; from tissue; host or cells: sheep placenta
T3 sequence (P79208 17-603): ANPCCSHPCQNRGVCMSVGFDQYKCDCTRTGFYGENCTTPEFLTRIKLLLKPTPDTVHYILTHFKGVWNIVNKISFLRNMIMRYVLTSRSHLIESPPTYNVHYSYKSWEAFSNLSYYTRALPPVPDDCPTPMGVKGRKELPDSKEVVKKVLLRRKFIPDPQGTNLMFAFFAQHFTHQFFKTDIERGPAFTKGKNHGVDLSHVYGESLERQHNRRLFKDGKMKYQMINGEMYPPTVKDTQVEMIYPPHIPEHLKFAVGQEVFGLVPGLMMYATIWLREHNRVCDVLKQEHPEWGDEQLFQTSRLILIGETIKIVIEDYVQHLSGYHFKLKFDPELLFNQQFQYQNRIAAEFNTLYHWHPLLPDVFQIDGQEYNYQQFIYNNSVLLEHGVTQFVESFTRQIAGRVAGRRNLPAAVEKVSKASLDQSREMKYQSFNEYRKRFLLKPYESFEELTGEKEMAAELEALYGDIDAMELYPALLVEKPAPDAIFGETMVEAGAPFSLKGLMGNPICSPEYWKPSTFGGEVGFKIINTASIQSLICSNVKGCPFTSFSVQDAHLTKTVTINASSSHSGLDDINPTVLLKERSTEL
Method: Test System for Determination of the Inhibition of Cyclooxygenase-2
COX2 (from sheep placenta) is preincubated with test substance at 4° C. for 10 min, then stimulated with arachidonic acid (5 μM) at 25° C. for 10 min. […] The determination is carried out at 3 dilutions (10^−7, 10^−6, 10^−5 M), and the PGE2 concentrations are quantified by means of ELISA (see Mitchell, J. A. et al. Proc. Nat. Acad. Sci 90: 11693-11697 (1993)).

T2 sequence (P23219 24-599): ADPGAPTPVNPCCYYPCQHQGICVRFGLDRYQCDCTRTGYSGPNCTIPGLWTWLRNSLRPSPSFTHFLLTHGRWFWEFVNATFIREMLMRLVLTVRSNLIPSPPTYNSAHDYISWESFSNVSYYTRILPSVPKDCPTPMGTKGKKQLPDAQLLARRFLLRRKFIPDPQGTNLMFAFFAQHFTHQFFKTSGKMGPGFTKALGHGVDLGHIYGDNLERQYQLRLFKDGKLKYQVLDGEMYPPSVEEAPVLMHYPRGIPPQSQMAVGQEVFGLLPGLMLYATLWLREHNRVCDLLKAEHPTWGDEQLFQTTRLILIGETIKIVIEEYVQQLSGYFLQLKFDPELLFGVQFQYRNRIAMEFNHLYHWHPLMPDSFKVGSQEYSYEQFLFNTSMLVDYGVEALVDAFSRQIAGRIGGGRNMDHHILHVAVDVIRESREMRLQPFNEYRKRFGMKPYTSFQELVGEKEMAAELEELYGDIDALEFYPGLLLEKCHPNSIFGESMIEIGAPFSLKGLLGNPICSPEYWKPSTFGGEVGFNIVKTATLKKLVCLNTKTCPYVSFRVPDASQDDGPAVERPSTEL

Row | chromatographic logP ([1]; pH 2.5, read-out: Log P pH 2.5) | chromatographic logP ([1]; pH 7.5, read-out: Log P pH 7.5) | IC50 (Cyclooxygenase-1) [nM] | melting point [°C] | IC50 [2] [µM] | SMILES | IC50 (5-lipoxygenase) [nM]
1 | 5 | 5.1 | 950 | – | – | CC1(C)Cn2cc(-c3ccc(Cl)cc3)c(-c3ccccc3)c2C1=O [Example 6, 6-(4-Chlorophenyl)-2,3-dihydro-2,2-dimethyl-1-oxo-7-phenyl-1H-pyrrolizine] | 230
2 | – | – | – | 193 | – | CCOC(=O)C(=O)c1c(-c2ccc(Cl)cc2)c(-c2ccccc2)c2n1CC(C)(C)C2O (centres unmarked) [Example 11, Ethyl 6-(4-Chlorophenyl)-2,3-dihydro-1-hydroxy-2,2-dimethyl-7-phenyl-1H-pyrrolizin-5-yl-2-oxoacetate] | –
3 | 4.5 | 1.7 | 60 | – | – | COC1c2c(-c3ccccc3)c(-c3ccc(Cl)cc3)c(CC(=O)O)n2CC1(C)C (centres unmarked) [Example 14, 6-(4-Chlorophenyl)-2,3-dihydro-1-methoxy-2,2-dimethyl-7-phenyl-1H-pyrrolizin-5-ylacetic Acid] | –
4 | – | – | – | 133 | – | Cc1c(-c2ccc(Cl)cc2)c(-c2ccccc2)c2n1CC(C)(C)C2O (centres unmarked) [Example 15, 6-(4-Chlorophenyl)-2,3-dihydro-1-hydroxy-2,2,5-trimethyl-7-phenyl-1H-pyrrolizine] | –
5 | 5.1 | 6.7 | 500 | – | 7.5 | COC1c2c(-c3ccccc3)c(-c3ccc(Cl)cc3)c(C)n2CC1(C)C (centres unmarked) [Example 16, 6-(4-Chlorophenyl)-2,3-dihydro-1-methoxy-2,2,5-trimethyl-7-phenyl-1H-pyrrolizine] | –
6 | 3.3 | 1.1 | 46 | – | 2.1 | CC1(C)Cn2c(CC(=O)O)c(-c3ccc(Cl)cc3)c(-c3ccccc3)c2C1=O [Example 18, 6-(4-Chlorophenyl)-2,3-dihydro-2,2-dimethyl-1-oxo-7-phenyl-1H-pyrrolizin-5-ylacetic Acid] | –
7 | – | – | – | 193 | – | CC1(C)Cc2c(-c3ccccc3)c(-c3ccc(Cl)cc3)c(OC(=O)c3ccccc3)n2C1 [Example 26, 2-(4-Chlorophenyl)-6,6-dimethyl-1-phenyl-6,7-dihydro-5H-pyrrolizin-3-yl Benzoate] | –

Row | SMILES | chromatographic logP ([1]; pH 2.5, read-out: Log P pH 2.5) | chromatographic logP ([1]; pH 7.5, read-out: Log P pH 7.5) | IC50 (Cyclooxygenase-1) [nM] | melting point [°C] | IC50 [2] [µM] | IC50 (5-lipoxygenase) [nM]
8 | CC1(C)Cc2c(-c3ccccc3)c(-c3ccc(Cl)cc3)c(CC(=O)O)n2C1 [ML 3000, reference compound] | 4.8 | 1.9 | 210 | – | 4.7 | 180
